Structures are written as SMILES. Inconclusive results are not listed. Active and inactive are the calls of the source. No rule for the calls is given here.

For this assay, the system named is H4 cells, PrP 5'UTR luciferase reporter, luminescence. Nature of the assay: activators of PrP 5'UTR-driven reporter translation, dose response, luminescence (AID 1999).

By EC50 is commonly meant the concentration that produces a half-maximal response. Regarding `C#CCOCCOCCOCCNc1nc(N2CCN(C(=O)CCCCCCCCCCNC(=O)[C@H](CCCCN)n3cc(CCCC(=O)O)nn3)CC2)nc(N2CCN(C(=O)CCCCCCCCCCNC(=O)[C@H](CCCN=C(N)N)n3cc(C[C@@H](C)CC)nn3)CC2)n1`, the EC50 was > 12 µM (inactive).
